Measured values: patent US20180338899A1, “INHIBITORS FOR METHYLATION-RELATED ENZYMES HAT1 AND KAT8” (priority 2015, published 2018)
Where a name gives a salt, the structure may show the parent alone. Read-outs that look alike come from different tables or passages of the source.

Assays:
[1] = molecular target: T1, HAT1 (Homo sapiens, UniProt O14929); test: FDA library screening (analysis service PLEXERA) and binding strength, HAT1
T1 sequence (O14929 1-419): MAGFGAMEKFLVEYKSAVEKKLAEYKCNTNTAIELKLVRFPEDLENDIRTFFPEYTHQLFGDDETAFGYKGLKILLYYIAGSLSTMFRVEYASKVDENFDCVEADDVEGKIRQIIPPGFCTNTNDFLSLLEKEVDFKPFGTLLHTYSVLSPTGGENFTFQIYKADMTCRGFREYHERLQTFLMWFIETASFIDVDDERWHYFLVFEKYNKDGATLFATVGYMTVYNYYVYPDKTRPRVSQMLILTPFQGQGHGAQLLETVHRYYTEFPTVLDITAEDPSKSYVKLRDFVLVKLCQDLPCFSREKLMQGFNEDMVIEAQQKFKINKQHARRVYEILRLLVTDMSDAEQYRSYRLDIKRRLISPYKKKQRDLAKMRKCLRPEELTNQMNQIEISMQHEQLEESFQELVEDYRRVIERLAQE
Text: (§1) Medicines containing each as an active ingredient (provided that each medicine has an indication other than that for malignant tumors) have already been commercially available.
(§2) Meanwhile, medicines containing each as an active ingredient (provided that each medicine has an indication other than that for malignant tumors) have already been commercially available.

[2] = molecular target: T2, KAT8 (Homo sapiens, UniProt Q9H7Z6); test: FDA library screening (analysis service PLEXERA) and binding strength, KAT8
T2 sequence (Q9H7Z6 1-458): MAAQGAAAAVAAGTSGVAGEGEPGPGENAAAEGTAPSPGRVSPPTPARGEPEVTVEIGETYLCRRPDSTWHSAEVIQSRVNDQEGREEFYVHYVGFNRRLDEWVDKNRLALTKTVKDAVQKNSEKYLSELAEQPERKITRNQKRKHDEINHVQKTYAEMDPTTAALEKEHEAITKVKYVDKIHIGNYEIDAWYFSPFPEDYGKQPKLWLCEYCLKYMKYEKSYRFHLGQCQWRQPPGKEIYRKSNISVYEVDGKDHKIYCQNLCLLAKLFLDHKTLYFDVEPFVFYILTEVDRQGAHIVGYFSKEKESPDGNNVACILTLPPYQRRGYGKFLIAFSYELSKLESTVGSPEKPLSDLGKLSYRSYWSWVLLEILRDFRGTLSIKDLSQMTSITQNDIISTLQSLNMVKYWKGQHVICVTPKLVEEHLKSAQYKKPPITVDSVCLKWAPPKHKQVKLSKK
Text: as §1, §2

[3] = cited from earlier work
[4] = test system: HAT1; test: Inhibitory effect of low-molecular-weight compounds on expression of HAT1 by RT-PCR; type: cell-based; conditions: FIG. 6
[5] = test system: KAT8; test: Inhibitory effect of low-molecular-weight compounds on expression of KAT8 by RT-PCR; type: cell-based; conditions: FIG. 6
[6] = test system: HLF cells; test: Cell growth suppression of HLF cells on culture plates; type: cell-based; conditions: 360 μg/L, day 3 and day 7
Experimental: First, HLF cells were cultured on culture plates with RPMI1640 for 7 days. […] In the figures, the “D” denotes days.
Furthermore, rebamipide was added to HLF cells on a culture pate, and the effect on the cells was examined.

[7] = molecular target: T1, HAT1; conditions: stated as property of the compound, no test described; cited from earlier work
[8] = molecular target: T2, KAT8; conditions: stated as property of the compound, no test described; cited from earlier work
[9] = test system: HLF cells; test: Cell death and cell growth suppression rate of HLF cells, 3D cell culture spheroid counter Cell3iMager; type: cell-based
Experimental: In addition, chlorpropamide or MG149 was added to HLF cells on culture plates and the cell death and cell growth suppression rate were inspected using a 3D cell culture spheroid counter Cell 3 i Mager (SCREEN, Inc., Kyoto). […] The rows indicate the days of culture and the columns show the kinds and concentrations of the compounds. The concentrations of chlorpropamide were represented in a ratio when the maximum effective blood concentration was set to 1. As the maximum effective blood concentration of chlorpropamide was used 30 µg/ml (which is a value described in the interview form of a commercially available medicine containing chlorpropamide as an active ingredient).

[10] = test system: various tumors (cancer and sarcoma types); test: Drug sensitivity test, anti-tumor effect on various tumors; type: cell-based; conditions: within an effective blood concentration or even at the minimum effective blood concentration or less; values only in FIG. 13
Text: Moreover, how chlorpropamide exerted an anti-tumor effect on various tumors was investigated. Target tumor types, which are classified into cancer (epithelial malignant tumors), include thyroid cancer, malignant brain tumor, malignant melanoma, lung cancer, gastric cancer, liver cancer, pancreatic cancer, colon cancer, cervical cancer, ovarian cancer, bladder cancer, and neuroblastoma. Target tumor types, which are classified into sarcoma (non-epithelial malignant tumors), include fibrosarcoma and osteosarcoma.
The concentrations of chlorpropamide were represented in a ratio when the maximum effective blood concentration was set to 1 as described above. […] The results mean that chlorpropamide can be used as an effective and safe anti-malignant tumor agent acting on various tumors.

[11] = interview form of commercially available medicine

Compound | inhibition of function of HAT1 [1] | inhibition of function of KAT8 [2] | maximum effective blood concentration (Cmax) [3, 11] [µg/mL] | also measured
NCC[C@H](O)C(=O)N[C@@H]1C[C@H](N)[C@@H](O[C@H]2O[C@H](CN)[C@@H](O)[C@H](O)[C@H]2O)[C@H](O)[C@H]1O[C@H]1O[C@H](CO)[C@@H](O)[C@H](N)[C@H]1O [amikacin hydrate] | inhibited function of both HAT1 and KAT8 | inhibited function of both HAT1 and KAT8 | 25 | 
colistin sulfate | inhibited function of both HAT1 and KAT8 | inhibited function of both HAT1 and KAT8 | 4.4 | inhibitory effect on expression of HAT1 [4]: inhibitory effect; inhibitory effect on expression of KAT8 [5]: inhibitory effect
CN[C@H](CC(C)C)C(=O)N[C@H]1C(=O)N[C@@H](CC(N)=O)C(=O)N[C@H]2C(=O)N[C@H]3C(=O)N[C@H](C(=O)N[C@H](C(=O)O)c4cc(O)cc(O)c4-c4cc3ccc4O)[C@H](O)c3ccc(c(Cl)c3)Oc3cc2cc(c3O[C@@H]2O[C@H](CO)[C@@H](O)[C@H](O)[C@H]2O[C@H]2C[C@](C)(N)[C@H](O)[C@H](C)O2)Oc2ccc(cc2Cl)[C@H]1O [vancomycin hydrochloride] | inhibited function of both HAT1 and KAT8 | inhibited function of both HAT1 and KAT8 | 30 | 
O=C(NC(Cc1cc(=O)[nH]c2ccccc12)C(=O)O)c1ccc(Cl)cc1 (centres unmarked) [Rebamipide, rebamipide] |  |  | 0.36 | cell growth suppression effect [6]: no cell growth suppression effect; inhibition of HAT1 [7]: inhibits HAT1; inhibition of KAT8 [8]: does not inhibit KAT8
CCCNC(=O)NS(=O)(=O)c1ccc(Cl)cc1 [chlorpropamide] | inhibited function of both HAT1 and KAT8 | inhibited function of both HAT1 and KAT8 | 30 | inhibitory effect on expression of HAT1 [4]: inhibitory effect; inhibitory effect on expression of KAT8 [5]: inhibitory effect; cell growth suppression effect ([9]; within an effective blood concentration or even at the minimum effective blood concentration or less): elicited a cell growth suppression effect; cell growth suppression effect on various tumors [10]: elicited a cell growth suppression effect on each tumor
C=CCc1ccccc1OCC(O)CNC(C)C (centres unmarked) [alprenolol hydrochloride] | inhibited function of both HAT1 and KAT8 | inhibited function of both HAT1 and KAT8 | 0.12 | 
Cc1cc(C(C)(C)CC(C)(C)C)ccc1OCCOCC[N+](C)(C)Cc1ccccc1.[Cl-] [methylbenzethonium chloride] | inhibited function of both HAT1 and KAT8 | inhibited function of both HAT1 and KAT8 | 1.93 | inhibitory effect on expression of HAT1 [4]: inhibitory effect; inhibitory effect on expression of KAT8 [5]: inhibitory effect; maximum effective blood concentration (Cmax) ([3]; interview form, given as percent (external preparation / solution concentration)): 0.3%
C=CCOc1ccccc1OCC(O)CNC(C)C (centres unmarked) [oxprenolol hydrochloride] | inhibited function of both HAT1 and KAT8 | inhibited function of both HAT1 and KAT8 | 0.3 | maximum effective blood concentration ([3]; commercially available medicine): 30.18 µg/µL
CCCCCCCc1ccc(CCc2cccc(O)c2C(=O)O)cc1 [MG149] |  |  |  | cell growth suppression effect ([9]; high concentration (30 μM)): failed to elicit a sufficient cell growth suppression effect; inhibition of HAT1 [7]: does not inhibit HAT1; inhibition of KAT8 [8]: inhibits only KAT8
CC(C)NCC(O)COc1ccc(COCCOC(C)C)cc1 (centres unmarked) [bisoprolol fumarate] | inhibited function of both HAT1 and KAT8 | inhibited function of both HAT1 and KAT8 | 0.1 | 
CC(C)NCC(O)COc1ccc(CCOCC2CC2)cc1 (centres unmarked) [betaxolol hydrochloride] | inhibited function of both HAT1 and KAT8 | inhibited function of both HAT1 and KAT8 | 0.0418 | 
CCN(CC)C(=O)Nc1ccc(OCC(O)CNC(C)(C)C)c(C(C)=O)c1 (centres unmarked) [celiprolol hydrochloride] | inhibited function of both HAT1 and KAT8 | inhibited function of both HAT1 and KAT8 | 0.3 | 
